Assays:
[1] = biological target: T1, recombinant full-length HSET (Homo sapiens, UniProt Q9BW19); experiment: ADP-Glo HSET assay (500 μM ATP); assay type: biochemical; conditions: high ATP concentration of 500 μM; single determination or mean of two
T1 construct: 5 nM full-length human N-terminal His-tag HSET; His-tag (N)
T1 sequence (Q9BW19 1-673): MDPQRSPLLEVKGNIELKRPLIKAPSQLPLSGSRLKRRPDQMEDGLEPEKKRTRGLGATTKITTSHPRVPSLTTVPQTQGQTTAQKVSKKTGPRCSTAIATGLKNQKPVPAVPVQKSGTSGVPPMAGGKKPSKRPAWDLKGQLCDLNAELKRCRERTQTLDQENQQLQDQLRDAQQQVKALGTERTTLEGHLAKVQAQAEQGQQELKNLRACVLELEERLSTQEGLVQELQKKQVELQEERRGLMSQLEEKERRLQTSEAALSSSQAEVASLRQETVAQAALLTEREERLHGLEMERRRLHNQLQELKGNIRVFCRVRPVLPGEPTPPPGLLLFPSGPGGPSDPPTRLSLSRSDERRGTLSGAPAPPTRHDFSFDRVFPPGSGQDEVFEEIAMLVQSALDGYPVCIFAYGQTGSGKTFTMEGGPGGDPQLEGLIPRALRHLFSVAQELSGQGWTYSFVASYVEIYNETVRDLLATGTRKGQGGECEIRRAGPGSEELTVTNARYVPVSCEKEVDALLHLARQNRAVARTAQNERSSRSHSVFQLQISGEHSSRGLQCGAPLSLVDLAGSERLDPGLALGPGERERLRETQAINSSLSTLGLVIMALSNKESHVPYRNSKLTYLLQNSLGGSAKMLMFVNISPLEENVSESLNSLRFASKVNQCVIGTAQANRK
Experimental: (§1) The HSET or Eg5 ATPase activity was measured using the ADP-Glo Kinase Assay kit (Promega, V9102). The assays were run using final concentrations of 5 nM full-length human N-terminal His-tag HSET or 4 nM GST-tagged Eg5 motor domain protein (Cytoskeleton, EG01) and an assay buffer containing 20 mM HEPES pH 6.8, 10 mM MgCl2, 0.25 mM EGTA, 0.4 mM Triton X-100, and 1 mM DTT. Preformed microtubules (Universal Biologicals Cambridge, bovine MT001-XL, or porcine MT002-XL), which were reconstituted in 15 mM PIPES pH 7, 1 mM MgCl2, and 20 μM paclitaxel, were present at a final assay concentration of 70 μg/mL. A reaction volume of 5 μL was used in Proxiplate 384 plus white assay plates (PerkinElmer, 6008280). To measure compound inhibition, 100 nL of compound dissolved in DMSO or DMSO alone was preincubated with the HSET and microtubules for 10 min before 3 μM Ultra-Pure ATP was added to start the ATPase reaction for the 3 μM ATP HSET assay. For the 500 μM ATP HSET assay, the addition of 500 μM Ultra-Pure ATP was used. For the Eg5 ATPase assay, 4.8 μM Ultra-Pure ATP was used. All reactions were incubated at 25 °C for 80 min and then stopped by the addition of 5 μL of the ADP-Glo reagent. 10 μL of Kinase Detection Reagent was then added after a further 45 min of incubation. The luminescence was read after 45 min on a PheraStar FSX plate reader (BMG Labtech). The data processing was performed using Dotmatics Studies software package. Percentage inhibition was determined based on normalization to high controls (0% inhibition, all reagents with 100 nL of DMSO alone) and low controls (100% inhibition […], without HSET). The IC50 values for each compound were determined using a four-parameter logistic curve fit of % inhibition versus concentration.

[2] = biological target: T1, recombinant full-length HSET; experiment: ADP-Glo HSET assay (3 μM ATP), microtubule-stimulated ATPase; assay type: biochemical; conditions: for IC50: preformed microtubules, 3 μM ATP, read-out: HSET ADP-Glo IC50
Summary of the method: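 His-tagged full-length HSET (5 nM) or GST-Eg5 motor domain (4 nM), with 70 μg/mL paclitaxel-stabilised microtubules in HEPES pH 6.8 buffer, was preincubated with compound for 10 min. ATP was then added (3 or 500 μM for HSET, 4.8 μM for Eg5), followed by 80 min at 25 °C and ADP-Glo luminescence. IC50 was fitted with a four-parameter logistic.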

[3] = biological target: T2, GST-tagged Eg5 motor domain (Homo sapiens, UniProt P52732); experiment: ADP-Glo Eg5 assay (4.8 μM ATP); assay type: biochemical; conditions: preformed microtubules, 4.8 μM ATP (Table 4)
T2 construct: 4 nM GST-tagged Eg5 motor domain protein (Cytoskeleton, EG01); purchased Cytoskeleton EG01
T2 sequence (P52732 18-359 limits assumed): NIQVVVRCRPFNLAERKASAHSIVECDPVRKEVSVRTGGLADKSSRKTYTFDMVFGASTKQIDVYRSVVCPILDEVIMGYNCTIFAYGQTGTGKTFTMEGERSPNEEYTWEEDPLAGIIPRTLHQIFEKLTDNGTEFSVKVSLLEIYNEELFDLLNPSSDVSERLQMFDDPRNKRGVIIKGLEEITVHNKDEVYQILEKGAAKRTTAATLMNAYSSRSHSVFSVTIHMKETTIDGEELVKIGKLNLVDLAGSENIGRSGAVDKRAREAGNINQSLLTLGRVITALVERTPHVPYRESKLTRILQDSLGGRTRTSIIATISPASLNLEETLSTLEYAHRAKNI
Experimental: as §1

[4] = tested on: DLD1 cells (4NCA and 4N); assay type: cell-based; conditions: human
Experimental: (§2) Inhibition of HSET-mediated clustering was measured using a phenotypic assay measuring the formation of multipolar metaphase spindles in DLD1 cells with (4NCA) or without (4N) centrosome amplification. 4NCA cells were generated by treating 2N DLD1 cells with 2 μΜ DCB for 24 h, washed, and released in growth media for 24 h. 4N and 4NCA DLD1 cells were plated in 96-well ibidi μ-Clear plates (IB-89626, ibidi) with a no. 1.5 polymer coverslip bottom with optimal imaging properties. To enrich the mitotic population, cells were first treated for 3.5 h with 8 μM pro-TAME (I-440-01M, R&D system), an inhibitor of APC/C that transiently arrests cells in metaphase without affecting the structure of the spindle. Following the initial arrest, cells were treated with HSET compounds in the presence of 8 μM MG-132 (S2619, SelleckChem), a proteasome inhibitor that helps to maintain the metaphase arrest, where the number of spindle poles/cell can be optimally quantified by an automated segmentation analysis.
(§3) Cells were then fixed in methanol and stained for 3 h for mitotic pole marker aurora A (1:1000 610939 mouse anti-IAK1, BD Biosciences) and phosphorylated histone H3 (1:1500 ab47297 anti-histone H3 pS10, Abcam) as a marker of mitotic cells in 1.5% FBS in PBS. Following primary antibody treatment, cells were incubated with secondary antibodies Alexa Fluor 488 goat antimouse and Alexa Fluor 555 goat antirabbit (1:1500, A11029 and A21429, respectively, Life Technologies) together with 1 μg/mL DAPI (D9542, Sigma) in 1.5% FBS in PBS. Image acquisition was performed at 10× using the GE INCELL 2200 High Content Imaging System (Cytiva) and analyzed using the InCell Investigator software. Mitotic cells were identified by high pHH3 staining and were scored as multipolar if they had more than two mitotic spindle poles. The percentage of multipolar mitoses was calculated by dividing the number of multipolar mitoses by the total of all visible mitoses in one well of a 96-well plate (n > 100 for each replicate, two replicates per concentration point).
3. […]

[5] = tested on: non-centrosome amplified DLD1 (4N) cells; experiment: Multipolar spindle assay (4N cell line); assay type: cell-based, human
From the text: (§4) The cellular models consisted of chromosomally stable human colon cancer DLD1 diploid (2N) and tetraploid (4N) cells, along with tetraploid centrosome -amplified (4NCA) DLD1 cells and DLD1 HSET knockout (KO) cells. DLD1 2N and 4N cells were generated and characterized as previously described.[27],[41],[42] In order to generate 4NCA cells, we used dihydro-cytochalasin B (DCB) to transiently block cytokinesis and induce tetraploidisation and centrosome amplification in DLD1 cells. Centrosome amplification in 4NCA cells is transient and therefore they were generated from 2N cells for each run of the assay.[27] The DLD1 HSET KO cells were knockout clones generated by CRISPR and validated by sequencing to have a homozygous deletion in the KIFC1 gene.
as §2, §3

[6] = tested on: centrosome-amplified (4NCA) DLD1 cells; experiment: Multipolar spindle assay (4NCA cell line); assay type: cell-based, human
From the text: as §4, §2, §3

[7] = biological target: T3, full-length HSET (FL HSET) (Homo sapiens, UniProt Q9BW19); experiment: Fluorescence polarization probe Kd determination; assay type: binding
T3 construct: 5 nM full-length human N-terminal His-tag HSET; His-tag (N)
T3 sequence (Q9BW19 1-673): T1 sequence (Q9BW19 1-673)
Experimental: Steady-state fluorescence polarization binding assays were performed using the fluorescence-tagged probe 37. All assays were performed in a black ProxiPlate-384 Plus plate (PerkinElmer, 6008260) in a 10 μL volume in buffer containing 20 mM HEPES pH 7.5, 200 mM NaCl, 1 mM TCEP, 10 mM MgCl2, 0.1 mM Triton X-100, and 5% glycerol (v/v). Full-length human N-terminal His-tag HSET was used, with a final concentration of 2.5 nM 37 probe. The assays were sealed and incubated in the dark at 25 °C and then the FP signal was read on an EnVision multimode plate reader (PerkinElmer Life Sciences) using excitation at 620 nm and parallel and perpendicular emissions at 688 nm. All data processing was done using Prism (GraphPad Software).
For the probe Kd determinations, FL HSET final concentrations were used between 2000 and 0.5 nM. When present, preformed microtubules (Universal Biologicals Cambridge, bovine MT001-XL or porcine MT002-XL), which were reconstituted in 15 mM PIPES pH 7, 20 μM paclitaxel, or reconstitution buffer alone, were preincubated with HSET for 10 min and then added to the probe. The plate was read after 3 h of incubation in the dark at 25 °C. Kd values were determined using a 1:1 site binding model of the fluorescence polarization versus protein concentration.

IC50 [1] | LE ([2]; LE = −1.4Log(IC50 [M])/number of non-hydrogen atoms (Table 1)) | LLE ([2]; LLE = −Log(IC50 [M]) – cLogP (MoKa) (Table 1)) | IC50 ([2]; mean (±SD) n ≥ 3 (Table 4)) | IC50 ([2]; mean (±SD) n ≥ 3, >200 from a single determination (Table 1)) | IC50 [3] | LE ([2]; LE = −1.4Log(IC50 [M])/number of non-hydrogen atoms (Table 2)) | LLE ([2]; LLE = −Log(IC50 [M]) – cLogP (MoKa) (Table 2)) | IC50 ([2]; mean (±SD) n ≥ 3, >200 from a single determination (Table 2)) | IC50 ([2]; mean (±SD) n ≥ 3 (37 n = 2, 38 single determination) (Table 3)) | Kd ([7]; FL HSET + MT buffer only) | Kd ([7]; isolated full-length HSET, no microtubules) | Compound | concentration at which cellular toxicity observed [4] | % Multipolarity above baseline @ 15 mM (4N cells) ([5]; 15 μM, 4N cells, supplementary CSV) | effect on multipolar mitoses (4N), in words ([5]; 15 μM, non-centrosome amplified DLD1 (4N) cell line) | % multipolarity above baseline @ 15 μM (4N cells) ([5]; 4N DLD1 cells (Table 4)) | % multipolarity above baseline @ 15 μM (4NCA cells) ([6]; 15 μM, 4NCA DLD1 cells (Table 4)) | % multipolarity above baseline @ 15 μM (4NCA cells) ([6]; 15 µM, 4NCA cells, supplementary CSV) | increase in mitotic spindle multipolarity (4NCA) ([6]; 15 μM, centrosome-amplified (4NCA) DLD1 cell line)
825 nM | 0.25 | 1.5 | 171 nM | 171 nM | 35600 nM |  |  |  |  |  |  | CCCc1cc(C(=O)N[C@H](Cc2ccc(-c3cccc(OC(F)(F)F)c3)nc2)C(=O)N[C@@H]2CCNC2)sc1C [Compound 1, 5-Methyl-6N-((R)-1-oxo-1-((R)-pyrrolidin-3-ylamino)-3-(6-(3-(trifluoromethoxy)phenyl)pyridin-3-yl)propan-2-yl)-4-propylthiophene-2-carboxamide, reference compound] | 6 µM |  |  |  |  |  | 
332 nM |  |  | 93 nM |  | > 200000 nM | 0.32 | 3.7 | 93 nM |  |  |  | CCOC(=O)c1sc(NC(=O)CCNC(=O)c2cccc(-c3noc(C)n3)c2)cc1C [Compound 26, Ethyl 3-Methyl-5-(3-(3-(5-methyl-1,2,4-oxadiazol-3-yl)benzamido)propanamido)thiophene-2-carboxylate] |  | 1% | no increases in multipolar mitoses | 1% | 13% | 13% | ~10%
 |  |  |  |  |  |  |  |  | 257 nM | 675 ± 148 nM | 371 nM | CCCOC(=O)c1sc(NC(=O)C[C@H](CCCNC(=O)CCCCC[N+]2=C(/C=C/C=C/C=C3/N(C)c4ccc(S(=O)(=O)O)cc4C3(C)C)C(C)(C)c3cc(S(=O)(=O)O)ccc32)NC(=O)c2cccc(-c3noc(C)n3)c2)nc1C [Compound 37, 3,3-Dimethyl-1-(6-(((S)-4-(3-(5-methyl-1,2,4-oxadiazol-3-yl)benzamido)-6-((4-methyl-5-(propoxycarbonyl)thiazol-2-yl)amino)-6-oxohexyl)amino)-6-oxohexyl)-5-sulfo-2-((1E,3E)-5-((E)-1,3,3-trimethyl-5-sulfoindolin-2-ylidene)penta-1,3-dien-1-yl)-3H-indol-1-ium] |  |  |  |  |  |  | 
